Data reported in patent publication US20080207617A1, “Quinoline Derivatives and Quinazoline Derivatives Inhibiting Autophosphrylation of Flt3 and Medicinal Compositions Containing the Same” (KIRIN BEER KABUSHIKI KAISHA, priority 2002, published 2008).
Where a name gives a salt, the structure may show the parent alone. Read-outs that look alike come from different tables or passages of the source.

Columns and labels:
MOLM13 [1] = assay: Cell growth inhibitory activity using MTT method (MOLM13); format: cell-based, human; settings: MOLM13 cells
Procedure: Pharmacological Test Example 3
Measurement of Cell Growth Inhibitory Activity Using MTT Method
Human leukemia cell line MOLM13 (subdivided from Hayashibara Biochemical Laboratories, Inc.) was cultured in an RPMI medium containing 10% fetal calf serum (purchased from Asahi Techno Glass Corporation) within a 5% carbon dioxide incubator until the cell density reached 50 to 90% of the maximum cell density. These cells were seeded into wells, containing an RPMI medium containing 10% fetal calf serum, in a 96-well flat bottom plate in an amount of […] per well. The amount of the solution of the medium in each well was brought to 100 μl, and a test compound was added thereto to 500 ng, 100 ng, 20 ng, and 4 ng per ml. After culture within an incubator for 72 hr, 10 μl of a 5 mg/ml MTT (3-(4,5-dimethylthiazol-2-yl)-2,5-diphenyl tetrazolium bromide) solution (purchased from SIGMA) was added to the medium, and a reaction was allowed to proceed for 4 hr. Thereafter, 100 μl of a 0.04 N hydrochloric acid-isopropanol solution was added to completely dissolve the resultant MTT formazan crystal. After the dissolution, absorbance at 550 nm was measured using 620 nm as a reference wavelength with a microplate reader (DIGISCAN) (It is regarded that, in the MTT method, the viable cell count is reflected, and linearity is observed in a cell count per well range of 5×10^5 to 2×10^2 cells). After 72 hr, the absorbance of only the medium free from cells was subtracted from the absorbance of the well without the addition of the test compound to determine a value which was presumed to be 100%. On the other hand, the absorbance with the addition of the compound was expressed in terms of % growth.

MOLM13 [2] = assay: Cell growth inhibitory activities on cultured human leukemia cells MOLM-13 (WST-1); format: cell-based; settings: 3 days culture
MOLM13 [3] = assay: Tumor growth inhibitory activities in nude mice xenograft model inoculated with human leukemia cells MOLM13; format: in vivo; settings: Mus musculus, MOLM-13, po, read-out: TGIR (%) (measurement date); for inhibition in vivo at 50 mg/kg: 50 mg/kg orally once a day
Procedure: Pharmacological Test Example 5
Tumor Growth Inhibitory Activities in Nude Mice Xenograft Model Inoculated with Human Leukemia Cells
Human leukemia cells MOLM13 (subdivided from Hayashibara Biochemical Laboratories, Inc.) were subcutaneously transplanted into nude mice. […] The test compound suspended or dissolved in 0.5% methylcellulose was orally administered at a dose of 0.1 ml per 10 g body weight once a day for 9 days. For the control group, only vehicle was administered.
The tumor growth inhibition rate (TGIR) was calculated as follows:
The tumor growth inhibition rate (TGIR)=(1−TX/CX)×100
wherein CX represents the volume of tumor at day X for the control group when the tumor volume at the day of the start of the administration (day 1) was presumed to be 1; and TX represents the volume of tumor at day X for test compound administration groups.

Compound | IC50 (MOLM13 [1]; Homo sapiens, MOLM-13, 72 h) | IC50 (MOLM13 [2]; Homo sapiens, MOLM-13, 72 h) | also measured
COc1cc2nccc(Oc3ccc(NC(=O)NCCC(C)(C)C)cc3)c2cc1OC [Compound 1, 1-[4-(6,7-Dimethoxy-quinolin-4-yloxy)-phenyl]-3-(3,3-dimethyl-butyl)-urea hydrochloride] | 24.4 nM | 1 nM | inhibition in vivo at 50 mg/kg (MOLM13 [3]; 264 h, day 11): 53.8%
COc1cc2nccc(Oc3c(Cl)cc(NC(=O)NCCC(C)(C)C)cc3Cl)c2cc1OC [Compound 6, 1-[3,5-Dichloro-4-(6,7-dimethoxy-quinolin--4-yloxy)-phenyl]-3-(3,3-dimethyl-butyl)-urea] | 12.4 nM | 21 nM | –
COc1cc2nccc(Oc3ccc(NC(=O)NCCC(C)(C)C)cc3Cl)c2cc1OC [Compound 8, 1-[3-Chloro-4-(6,7-dimethoxy-quinolin-4-yloxy)-phenyl]-3-(3,3-dimethyl-butyl)-urea] | 13.3 nM | 3 nM | –
COc1cc2c(Oc3ccc(NC(=O)NCCC(C)(C)C)c(F)c3)ccnc2cc1OCCN1CCOCC1 [Compound 41, 1-(3,3-Dimethyl-butyl)-3-{2-fluoro-4-[6-methoxy-7-(2-morpholin-4-yl-ethoxy)-quinolin-4-yloxy]-phenyl}-urea hydrochloride] | – | – | IC50 (MOLM13 [1]; 72 hr, hydrochloride): 34.8 nM; IC50 (MOLM13 [2]; hydrochloride): 75 nM

The next lines start with results.

IC50 (MOLM13 [1]; Homo sapiens, MOLM-13, 72 h) | IC50 (MOLM13 [2]; Homo sapiens, MOLM-13, 72 h) | Compound | also measured
20.8 nM | 2 nM | COc1cc2nccc(Oc3ccc(NC(=O)NCCC(C)(C)C)cc3F)c2cc1OC [Compound 10, 1-[4-(6,7-Dimethoxy-quinolin-4-yloxy)-3-fluoro-phenyl]-3-(3,3-dimethyl-butyl)-urea hydrochloride] | inhibition in vivo at 50 mg/kg (MOLM13 [3]; 240 h, day 10): 84.8%
32.5 nM | 22 nM | COc1cc2c(Oc3ccc(NC(=O)NCCC(C)(C)C)c(F)c3)ccnc2cc1OCCN1CCCCC1 [Compound 43, 1-(3,3-Dimethyl-butyl)-3-{2-fluoro-4-[6-methoxy-7-(2-piperidin-1-yl-ethoxy)-quinolin-4-yloxy]-phenyl}-urea hydrochloride] | inhibition in vivo at 50 mg/kg (MOLM13 [3]; 240 h, day 10): 98.1%
19.3 nM | 3 nM | COc1cc2c(Oc3ccc(NC(=O)NCCC(C)(C)C)cc3F)ccnc2cc1OCCN1CCCCC1 [Compound 44, 1-(3,3-Dimethyl-butyl)-3-{3-fluoro-4-[6-methoxy-7-(2-piperidin-1-yl-ethoxy)-quinolin-4-yloxy]-phenyl}-urea] | inhibition in vivo at 12.5 mg/kg (MOLM13 [3]; 216 h, 12.5 mg/kg orally once a day, day 9): 99.6%; inhibition in vivo at 25 mg/kg (MOLM13 [3]; 216 h, 25 mg/kg orally once a day, day 9): 99.8%
